Assay results published in article PMC10175918 (Communications Biology, 2023).
Like-named read-outs stand apart in the source and are kept apart here.

Tests used:
Experiment in all cases: TGFα-shedding assay-based GPCR screening with chimeric Gα subunit proteins
Assay type in all cases: cell-based
348 GPCRs [1] = molecular target: T1, 348 GPCRs (Homo sapiens, UniProt O00270); settings: 10µM, Favipiravir 100μM
T1 construct: expressed in transfected cells; host or cells: HEK293A

348 GPCRs [2] = molecular target: 348 GPCRs (Homo sapiens, UniProt P30872); settings: 10µM, Favipiravir 100μM
Sequence of 348 GPCRs (Homo sapiens, UniProt P30872) (P30872 whole entry): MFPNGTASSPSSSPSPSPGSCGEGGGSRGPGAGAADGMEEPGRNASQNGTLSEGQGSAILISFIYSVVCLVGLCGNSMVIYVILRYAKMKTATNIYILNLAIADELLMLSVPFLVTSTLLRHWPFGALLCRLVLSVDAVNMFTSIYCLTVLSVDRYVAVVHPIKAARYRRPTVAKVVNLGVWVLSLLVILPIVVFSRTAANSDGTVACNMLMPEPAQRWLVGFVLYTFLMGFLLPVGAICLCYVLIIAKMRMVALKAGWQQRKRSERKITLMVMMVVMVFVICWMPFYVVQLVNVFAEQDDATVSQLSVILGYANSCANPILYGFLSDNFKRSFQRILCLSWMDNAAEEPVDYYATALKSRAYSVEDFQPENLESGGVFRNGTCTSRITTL

348 GPCRs [3] = molecular target: T2, 348 GPCRs (Homo sapiens, UniProt P32302)
T2 construct: expressed in transfected cells; host or cells: HEK293A
T2 sequence (P32302 1-372): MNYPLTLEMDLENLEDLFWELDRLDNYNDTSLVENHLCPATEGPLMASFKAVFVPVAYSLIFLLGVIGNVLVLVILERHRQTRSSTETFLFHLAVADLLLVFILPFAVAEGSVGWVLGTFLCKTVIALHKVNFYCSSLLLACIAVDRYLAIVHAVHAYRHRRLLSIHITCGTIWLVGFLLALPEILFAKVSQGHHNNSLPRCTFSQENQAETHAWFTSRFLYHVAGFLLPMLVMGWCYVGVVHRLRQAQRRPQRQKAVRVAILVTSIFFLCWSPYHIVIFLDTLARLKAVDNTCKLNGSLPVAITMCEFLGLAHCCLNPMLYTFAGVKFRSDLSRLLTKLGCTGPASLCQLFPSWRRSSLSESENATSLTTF

348 GPCRs [4] = molecular target: T3, 348 GPCRs (Homo sapiens, UniProt P33032)
T3 construct: expressed in transfected cells; host or cells: HEK293A
T3 sequence (P33032 whole entry): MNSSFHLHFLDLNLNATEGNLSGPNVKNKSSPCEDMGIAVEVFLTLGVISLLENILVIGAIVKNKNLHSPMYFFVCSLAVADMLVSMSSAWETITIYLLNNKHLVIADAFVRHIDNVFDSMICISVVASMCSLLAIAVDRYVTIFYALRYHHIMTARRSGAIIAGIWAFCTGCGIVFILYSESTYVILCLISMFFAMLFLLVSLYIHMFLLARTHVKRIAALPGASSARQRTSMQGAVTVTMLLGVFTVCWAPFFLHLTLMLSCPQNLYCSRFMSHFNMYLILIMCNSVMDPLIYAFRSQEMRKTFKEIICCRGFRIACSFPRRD

348 GPCRs [5] = molecular target: T4, 348 GPCRs (Homo sapiens, UniProt P34969); settings: 10µM, Favipiravir 100μM
T4 construct: expressed in transfected cells; host or cells: HEK293A
T4 sequence (P34969 whole entry): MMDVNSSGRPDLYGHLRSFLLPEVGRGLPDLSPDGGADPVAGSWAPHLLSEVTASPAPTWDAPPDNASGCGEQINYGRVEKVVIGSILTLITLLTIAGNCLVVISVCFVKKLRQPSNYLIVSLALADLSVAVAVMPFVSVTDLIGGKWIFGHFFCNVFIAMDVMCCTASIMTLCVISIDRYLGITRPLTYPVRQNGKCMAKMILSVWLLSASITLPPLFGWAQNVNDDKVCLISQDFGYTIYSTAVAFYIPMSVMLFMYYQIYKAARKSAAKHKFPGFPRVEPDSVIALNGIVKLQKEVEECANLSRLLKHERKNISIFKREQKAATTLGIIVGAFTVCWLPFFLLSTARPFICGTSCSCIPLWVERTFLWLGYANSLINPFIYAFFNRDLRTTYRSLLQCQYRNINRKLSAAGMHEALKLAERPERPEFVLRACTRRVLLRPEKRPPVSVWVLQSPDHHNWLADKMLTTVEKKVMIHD

348 GPCRs [6] = molecular target: T5, 348 GPCRs (Homo sapiens, UniProt P43119); settings: 10µM, Favipiravir 100μM
T5 construct: expressed in transfected cells; host or cells: HEK293A
T5 sequence (P43119 whole entry): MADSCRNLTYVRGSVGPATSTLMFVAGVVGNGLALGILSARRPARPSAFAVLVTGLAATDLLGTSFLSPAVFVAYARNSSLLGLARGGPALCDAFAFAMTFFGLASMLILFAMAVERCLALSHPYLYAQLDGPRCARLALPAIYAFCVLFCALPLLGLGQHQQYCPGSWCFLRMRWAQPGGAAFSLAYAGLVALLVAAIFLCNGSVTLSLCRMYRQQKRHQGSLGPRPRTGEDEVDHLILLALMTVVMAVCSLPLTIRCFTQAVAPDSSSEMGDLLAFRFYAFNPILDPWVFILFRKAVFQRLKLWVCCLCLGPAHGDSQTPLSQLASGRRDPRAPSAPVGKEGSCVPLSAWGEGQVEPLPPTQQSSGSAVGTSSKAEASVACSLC

348 GPCRs [7] = molecular target: T6, 348 GPCRs (Homo sapiens, UniProt P49683); settings: 10µM, Favipiravir 100μM
T6 construct: expressed in transfected cells; host or cells: HEK293A
T6 sequence (P49683 1-370): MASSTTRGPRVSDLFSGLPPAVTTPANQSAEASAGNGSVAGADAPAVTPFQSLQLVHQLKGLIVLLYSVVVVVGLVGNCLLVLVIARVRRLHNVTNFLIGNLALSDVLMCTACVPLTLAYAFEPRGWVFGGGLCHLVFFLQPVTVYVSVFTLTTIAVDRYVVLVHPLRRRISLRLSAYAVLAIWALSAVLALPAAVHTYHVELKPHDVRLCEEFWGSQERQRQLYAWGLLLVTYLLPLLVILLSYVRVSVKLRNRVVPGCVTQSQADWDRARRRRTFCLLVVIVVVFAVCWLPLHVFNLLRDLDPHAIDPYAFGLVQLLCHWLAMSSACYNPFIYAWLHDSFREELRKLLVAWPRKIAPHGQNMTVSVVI

348 GPCRs [8] = molecular target: T7, 348 GPCRs (Homo sapiens, UniProt Q13639); settings: 10µM, Favipiravir 100μM
T7 construct: expressed in transfected cells; host or cells: HEK293A
T7 sequence (Q13639 whole entry): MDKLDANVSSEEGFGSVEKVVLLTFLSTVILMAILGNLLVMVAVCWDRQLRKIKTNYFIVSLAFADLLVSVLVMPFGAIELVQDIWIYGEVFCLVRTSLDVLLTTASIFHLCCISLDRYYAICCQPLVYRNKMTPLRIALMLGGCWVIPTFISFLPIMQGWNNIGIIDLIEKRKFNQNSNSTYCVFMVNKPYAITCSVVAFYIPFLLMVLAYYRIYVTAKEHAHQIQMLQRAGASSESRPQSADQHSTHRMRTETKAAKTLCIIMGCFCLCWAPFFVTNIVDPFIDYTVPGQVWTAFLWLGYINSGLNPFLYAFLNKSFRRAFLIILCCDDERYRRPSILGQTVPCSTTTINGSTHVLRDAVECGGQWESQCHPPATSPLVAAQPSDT

348 GPCRs [9] = molecular target: T8, 348 GPCRs (Homo sapiens, UniProt Q16581); settings: 10µM, Favipiravir 100μM
T8 sequence (Q16581 1-482): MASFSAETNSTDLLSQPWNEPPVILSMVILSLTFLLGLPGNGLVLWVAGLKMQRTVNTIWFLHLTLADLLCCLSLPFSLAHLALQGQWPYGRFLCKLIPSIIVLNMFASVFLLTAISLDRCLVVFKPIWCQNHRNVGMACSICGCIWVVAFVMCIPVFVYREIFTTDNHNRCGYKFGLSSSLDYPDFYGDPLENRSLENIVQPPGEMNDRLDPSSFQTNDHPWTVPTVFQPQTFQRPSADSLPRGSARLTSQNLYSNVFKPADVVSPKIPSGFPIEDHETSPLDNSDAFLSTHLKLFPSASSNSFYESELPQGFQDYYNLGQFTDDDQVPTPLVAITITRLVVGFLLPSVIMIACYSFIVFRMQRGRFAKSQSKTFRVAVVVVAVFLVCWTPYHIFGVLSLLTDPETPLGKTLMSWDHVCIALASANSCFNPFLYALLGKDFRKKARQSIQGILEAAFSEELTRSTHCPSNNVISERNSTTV

348 GPCRs [10] = molecular target: T9, 348 GPCRs (Homo sapiens, UniProt Q5NUL3)
T9 construct: expressed in transfected cells; host or cells: HEK293A
T9 sequence (Q5NUL3 1-361): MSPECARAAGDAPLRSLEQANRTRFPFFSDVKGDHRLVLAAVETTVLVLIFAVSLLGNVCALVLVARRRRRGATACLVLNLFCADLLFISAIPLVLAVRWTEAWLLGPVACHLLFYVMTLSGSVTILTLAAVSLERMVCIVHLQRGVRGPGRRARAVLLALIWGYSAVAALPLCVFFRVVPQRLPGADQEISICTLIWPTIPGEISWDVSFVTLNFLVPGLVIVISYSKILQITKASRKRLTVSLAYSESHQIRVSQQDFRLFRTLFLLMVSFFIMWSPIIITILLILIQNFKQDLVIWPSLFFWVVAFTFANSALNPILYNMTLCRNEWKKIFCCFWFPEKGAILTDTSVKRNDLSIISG

348 GPCRs [11] = molecular target: T10, 348 GPCRs (Homo sapiens, UniProt Q86VZ1)
T10 construct: expressed in transfected cells; host or cells: HEK293A
T10 sequence (Q86VZ1 whole entry): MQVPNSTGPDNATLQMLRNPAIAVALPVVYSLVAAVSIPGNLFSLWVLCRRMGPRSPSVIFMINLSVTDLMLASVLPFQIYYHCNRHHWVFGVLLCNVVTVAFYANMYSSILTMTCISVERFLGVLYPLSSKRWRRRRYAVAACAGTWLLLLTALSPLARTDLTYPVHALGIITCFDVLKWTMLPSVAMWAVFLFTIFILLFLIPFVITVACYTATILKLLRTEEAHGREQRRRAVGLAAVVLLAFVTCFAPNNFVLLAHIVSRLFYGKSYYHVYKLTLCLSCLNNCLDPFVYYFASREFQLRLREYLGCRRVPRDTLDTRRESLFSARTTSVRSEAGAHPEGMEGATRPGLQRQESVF

348 GPCRs [12] = molecular target: T11, 348 GPCRs (Homo sapiens, UniProt Q9UJ42); settings: 10µM, Favipiravir 100μM
T11 construct: expressed in transfected cells; host or cells: HEK293A
T11 sequence (Q9UJ42 whole entry): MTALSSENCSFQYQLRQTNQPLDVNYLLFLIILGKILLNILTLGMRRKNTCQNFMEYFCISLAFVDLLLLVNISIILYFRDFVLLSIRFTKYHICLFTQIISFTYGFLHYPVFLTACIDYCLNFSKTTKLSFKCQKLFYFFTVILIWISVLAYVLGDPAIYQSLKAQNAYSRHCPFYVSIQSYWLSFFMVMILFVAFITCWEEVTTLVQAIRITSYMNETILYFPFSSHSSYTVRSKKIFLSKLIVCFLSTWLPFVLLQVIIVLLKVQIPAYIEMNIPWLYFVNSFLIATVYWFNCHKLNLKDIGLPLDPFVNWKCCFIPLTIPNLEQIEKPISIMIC

[13] = GPR31 (G Protein-Coupled Receptor 31), read-out: % GPCR activation compared to TPA
[14] = SSTR1 (somatostatin receptor 1), read-out: % GPCR activation compared to TPA
[15] = GPCR CXCR5 (C-X-C motif chemokine receptor 5), read-out: % GPCR activation compared to TPA
[16] = GPCR MC5R (melanocortin 5 receptor), read-out: % GPCR activation compared to TPA
[17] = 5-HT7 (5-hydroxytryptamine receptor 7), read-out: % GPCR activation compared to TPA
[18] = IP (prostaglandin I2 (prostacyclin) receptor), read-out: % GPCR activation compared to TPA
[19] = PRLHR (prolactin releasing hormone receptor), read-out: % GPCR activation compared to TPA
[20] = HTR4 (5-hydroxytryptamine (serotonin) receptor 4), read-out: % GPCR activation compared to TPA
[21] = C3AR1 (complement C3a receptor 1), read-out: % GPCR activation compared to TPA
[22] = FFA4 (free fatty acid receptor 4), Favipiravir 100μM, read-out: % GPCR activation compared to TPA
[23] = GPCR GPR120 (Free Fatty Acid Receptor 4 (FFAR4)), read-out: % GPCR activation compared to TPA
[24] = GPCR P2Y8 (purinergic receptor P2Y, G-protein coupled, 8), read-out: % GPCR activation compared to TPA
[25] = GPR160 (G Protein-Coupled Receptor 160), read-out: % GPCR activation compared to TPA
[26] = read-out: % GPCR activation compared to TPA, GPR31 (G Protein-Coupled Receptor 31)
[27] = read-out: % GPCR activation compared to TPA, SSTR1 (somatostatin receptor 1)
[28] = read-out: % GPCR activation compared to TPA, GPCR CXCR5 (C-X-C motif chemokine receptor 5)
[29] = read-out: % GPCR activation compared to TPA, GPCR MC5R (melanocortin 5 receptor)
[30] = read-out: % GPCR activation compared to TPA, 5-HT7 (5-hydroxytryptamine receptor 7)
[31] = read-out: % GPCR activation compared to TPA, IP (prostaglandin I2 (prostacyclin) receptor)
[32] = read-out: % GPCR activation compared to TPA, PRLHR (prolactin releasing hormone receptor)
[33] = read-out: % GPCR activation compared to TPA, HTR4 (5-hydroxytryptamine (serotonin) receptor 4)
[34] = read-out: % GPCR activation compared to TPA, C3AR1 (complement C3a receptor 1)
[35] = read-out: % GPCR activation compared to TPA, FFA4 (free fatty acid receptor 4), Favipiravir 100μM
[36] = read-out: % GPCR activation compared to TPA, GPCR GPR120 (Free Fatty Acid Receptor 4 (FFAR4))
[37] = read-out: % GPCR activation compared to TPA, GPCR P2Y8 (purinergic receptor P2Y, G-protein coupled, 8)
[38] = read-out: % GPCR activation compared to TPA, GPR160 (G Protein-Coupled Receptor 160)

T1 sequence (O00270 whole entry): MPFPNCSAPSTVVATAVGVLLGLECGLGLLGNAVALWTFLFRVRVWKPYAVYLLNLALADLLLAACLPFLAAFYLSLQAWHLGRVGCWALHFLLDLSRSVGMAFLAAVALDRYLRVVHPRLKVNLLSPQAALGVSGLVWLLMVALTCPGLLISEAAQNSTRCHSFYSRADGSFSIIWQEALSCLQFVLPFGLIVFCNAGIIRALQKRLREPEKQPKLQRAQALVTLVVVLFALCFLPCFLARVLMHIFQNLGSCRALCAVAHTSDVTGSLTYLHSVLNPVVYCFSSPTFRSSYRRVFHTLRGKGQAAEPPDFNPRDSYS

Row | Compound | activation at 100 µM (348 GPCRs [1]; [13]) [%] | activation at 10 µM (348 GPCRs [2]; [14]) [%] | activation at 10 µM (348 GPCRs [3]; [15]) [%] | activation at 10 µM (348 GPCRs [4]; [16]) [%] | activation at 100 µM (348 GPCRs [5]; [17]) [%] | activation at 100 µM (348 GPCRs [6]; [18]) [%] | activation at 100 µM (348 GPCRs [7]; [19]) [%] | activation at 100 µM (348 GPCRs [8]; [20]) [%] | activation at 10 µM (348 GPCRs [9]; [21]) [%] | activation at 10 µM (348 GPCRs [10]; [22]) [%] | activation at 10 µM (348 GPCRs [10]; [23]) [%] | activation at 10 µM (348 GPCRs [11]; [24]) [%] | activation at 10 µM (348 GPCRs [12]; [25]) [%] | activation at 100 µM (348 GPCRs [1]; [26]) [%] | activation at 10 µM (348 GPCRs [2]; [27]) [%] | activation at 10 µM (348 GPCRs [3]; [28]) [%] | activation at 10 µM (348 GPCRs [4]; [29]) [%] | activation at 100 µM (348 GPCRs [5]; [30]) [%] | activation at 100 µM (348 GPCRs [6]; [31]) [%] | activation at 100 µM (348 GPCRs [7]; [32]) [%] | also measured
1 | N#C[C@@]1(c2ccc3c(N)ncnn23)O[C@H](CO)[C@@H](O)[C@H]1O [GS441524] | -1.59 | -0.554 | -2.05 | 0.908 | 1.1 | -1.08 | -1.86 | -1.56 | 3.33 | -7.33 | 0.817 | 1.71 | 0.113 |  |  |  |  |  |  |  | 
2 | CC(C)OC(=O)[C@H](C)N[P@](=O)(OC[C@H]1O[C@@H](n2ccc(=O)[nH]c2=O)[C@](C)(F)[C@@H]1O)Oc1ccccc1 [sofosbuvir] |  |  |  |  |  |  |  |  |  |  |  |  |  | -0.455 | -0.638 | -0.968 | -2.87 | -1.41 | -1.51 | -8.24 | activation at 100 µM (348 GPCRs [8]; [33]): -4.08%; activation at 10 µM (348 GPCRs [9]; [34]): -0.133%; activation at 10 µM (348 GPCRs [10]; [35]): -2.55%; activation at 10 µM (348 GPCRs [10]; [36]): -1.1%; activation at 10 µM (348 GPCRs [11]; [37]): -3.86%; activation at 10 µM (348 GPCRs [12]; [38]): 2.1%
3 | CCC(CC)COC(=O)[C@H](C)N[P@](=O)(OC[C@H]1O[C@@](C#N)(c2ccc3c(N)ncnn23)[C@H](O)[C@@H]1O)Oc1ccccc1 [remdesivir] |  |  |  |  |  |  |  |  |  |  |  |  |  | -1.64 | 2.79 | -0.166 | 1.31 | 1.8 | -0.107 | 0.33 | activation at 100 µM (348 GPCRs [8]; [33]): -2.24%; activation at 10 µM (348 GPCRs [9]; [34]): 6.7%; activation at 10 µM (348 GPCRs [10]; [35]): -7.9%; activation at 10 µM (348 GPCRs [10]; [36]): 1.09%; activation at 10 µM (348 GPCRs [11]; [37]): 6.38%; activation at 10 µM (348 GPCRs [12]; [38]): 0.13%
4 | CC(C)C(=O)OC[C@H]1O[C@@H](n2ccc(NO)nc2=O)[C@H](O)[C@@H]1O [molnupiravir] | -1.71 | 0.451 | -2 | -1.47 | -0.625 | -1.76 | -3.13 | -3.37 | -0.773 | -1.75 | -1.23 | -9.1 | 0.0934 |  |  |  |  |  |  |  | 
5 | NC(=O)c1nc(F)cnc1O [favipiravir, 6-fluoro-3-hydroxy-2-pyrazinecarboxamide] | -1.25 | 0.537 |  |  | 0.723 | -2.05 | 1.46 | -3.64 | 1.69 | -8.27 |  |  | -0.794 |  |  |  |  |  |  |  | activation at 100 µM (348 GPCRs [3]; GPCR CXCR5 (C-X-C motif chemokine receptor 5), 100μM, read-out: % GPCR activation compared to TPA): -2.18%; activation at 100 µM (348 GPCRs [4]; GPCR MC5R (melanocortin 5 receptor), 100μM, read-out: % GPCR activation compared to TPA): -0.921%; activation at 100 µM (348 GPCRs [10]; GPCR GPR120 (Free Fatty Acid Receptor 4 (FFAR4)), 100μM, read-out: % GPCR activation compared to TPA): -1.72%; activation at 100 µM (348 GPCRs [11]; GPCR P2Y8 (purinergic receptor P2Y, G-protein coupled, 8), 100μM, read-out: % GPCR activation compared to TPA): 1.7%
